Measured values reported in patent US20180155344A1, “TRICYCLIC PIPERIDINE COMPOUNDS” (ACTELION PHARMACEUTICALS LTD, priority 2015, published 2018).
Counter-ions that a name gives are not always drawn.

Molecular target: T1, human TPH1 (Homo sapiens, UniProt P17752)
T1 sequence (P17752 1-444): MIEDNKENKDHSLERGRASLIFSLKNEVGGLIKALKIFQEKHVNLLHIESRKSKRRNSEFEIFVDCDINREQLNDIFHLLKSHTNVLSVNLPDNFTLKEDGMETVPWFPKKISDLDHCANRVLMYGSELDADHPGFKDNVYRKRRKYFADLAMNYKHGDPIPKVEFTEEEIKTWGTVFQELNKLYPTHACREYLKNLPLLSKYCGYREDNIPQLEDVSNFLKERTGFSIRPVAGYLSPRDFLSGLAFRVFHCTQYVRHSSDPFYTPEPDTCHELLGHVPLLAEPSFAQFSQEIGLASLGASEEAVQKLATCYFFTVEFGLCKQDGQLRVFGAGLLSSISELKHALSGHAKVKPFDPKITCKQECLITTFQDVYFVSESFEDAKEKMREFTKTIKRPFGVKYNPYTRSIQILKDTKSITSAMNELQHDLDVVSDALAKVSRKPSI
Test: biochemical
In short: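 Inhibition is derived from 5-hydroxy-L-tryptophan fluorescence (540 nm emission, 300 nm excitation) after perchloric acid stop, relative to DMSO vehicle. Recombinant full-length human enzyme (40-80 nM) reacts with 40 μM tryptophan plus 100 μM methyltetrahydropterin, pH 7.6 Tris/DTT/catalase, 15° C, 60 min.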

SMILES | IC50
Cc1cc(C2c3c(nc4cc(C(F)(F)F)ccn34)CCN2C(=O)COc2ccc3ccccc3c2)ccn1 (centres unmarked) [Example 3.57.1, 1-(1-(2-methylpyridin-4-yl)-7-(trifluoromethyl)-3,4-dihydroimidazo[1,2-a:5,4-c′]dipyridin-2(1H)-yl)-2-(naphthalen-2-yloxy)ethan-1-one] | 155 nM
Cc1cc(C2c3c(nc4cc(C(F)(F)F)ccn34)CCN2C(=O)COc2ccc(CN3CCOCC3)cc2Cl)ccn1 (centres unmarked) [Example 3.57.2, 2-(2-chloro-4-(morpholinomethyl)phenoxy)-1-(1-(2-methylpyridin-4-yl)-7-(trifluoromethyl)-3,4-dihydroimidazo[1,2-a:5,4-c′]dipyridin-2(1H)-yl)ethan-1-one] | 35 nM
O=C(COc1ccc(CN2CCOCC2)cc1Cl)N1CCc2nc3cc(C(F)(F)F)ccn3c2C1c1ccc(Cl)cn1 (centres unmarked) [Example 3.58.1, 2-(2-chloro-4-(morpholinomethyl)phenoxy)-1-(1-(5-chloropyridin-2-yl)-7-(trifluoromethyl)-3,4-dihydroimidazo[1,2-a:5,4-c′]dipyridin-2(1H)-yl)ethan-1-one] | 30 nM
Cc1nc(C)c(C2c3c(nc4cc(C(F)(F)F)ccn34)CCN2C(=O)COc2ccc(-c3ncco3)nc2Cl)s1 (centres unmarked) [Example 3.59.1, 2-((2-chloro-6-(oxazol-2-yl)pyridin-3-yl)oxy)-1-(1-(2,4-dimethylthiazol-5-yl)-7-(trifluoromethyl)-3,4-dihydroimidazo[1,2-a:5,4-c′]dipyridin-2(1H)-yl)ethan-1-one] | 22 nM
Cc1nc(C)c(C2c3c(nc4cc(C(F)(F)F)ccn34)CCN2C(=O)COc2ccc(C(=O)N(C)C3CC3)nc2Cl)s1 (centres unmarked) [Example 3.59.2, 6-chloro-N-cyclopropyl-5-(2-(1-(2,4-dimethylthiazol-5-yl)-7-(trifluoromethyl)-3,4-dihydroimidazo[1,2-a:5,4-c′]dipyridin-2(1H)-yl)-2-oxoethoxy)-N-methylpicolinamide] | 42 nM
COc1ccc(C2c3c(nc4cc(C)ccn34)CCN2C(=O)COc2ccc(Cl)cc2Cl)cc1OC (centres unmarked) [Example 4.1.1, 2-(2,4-dichlorophenoxy)-1-(1-(3,4-dimethoxyphenyl)-7-methyl-3,4-dihydroimidazo[1,2-a:5,4-c′]dipyridin-2(1H)-yl)ethan-1-one] | 32 nM
COc1ccc(C2c3c(nc4cc(C)ccn34)CCN2C(=O)COc2ccc3ccccc3c2)cc1OC (centres unmarked) [Example 4.1.2, 1-(1-(3,4-dimethoxyphenyl)-7-methyl-3,4-dihydroimidazo[1,2-a:5,4-c′]dipyridin-2(1H)-yl)-2-(naphthalen-2-yloxy)ethan-1-one] | 10 nM
COc1ccc(C2c3c(nc4cc(C(C)(C)C)ccn34)CCN2C(=O)COc2ccc(Cl)cc2Cl)cc1OC (centres unmarked) [Example 5.1.1, 1-(7-(tert-butyl)-1-(3,4-dimethoxyphenyl)-3,4-dihydroimidazo[1,2-a:5,4-c′]dipyridin-2(1H)-yl)-2-(2,4-dichlorophenoxy)ethan-1-one] | 10 nM
CCc1cc2nc3c(n2cc1C)C(c1ccc(OC)c(OC)c1)N(C(=O)COc1ccc(Cl)cc1Cl)CC3 (centres unmarked) [Example 6.1.1, 2-(2,4-dichlorophenoxy)-1-(1-(3,4-dimethoxyphenyl)-7-ethyl-8-methyl-3,4-dihydroimidazo[1,2-a:5,4-c′]dipyridin-2(1H)-yl)ethan-1-one] | 16 nM
CCc1cc2nc3c(n2cc1C)C(c1ccc(OC)c(OC)c1)N(C(=O)COc1ccc2ccccc2c1)CC3 (centres unmarked) [Example 6.1.2, 1-(1-(3,4-dimethoxyphenyl)-7-ethyl-8-methyl-3,4-dihydroimidazo[1,2-a:5,4-c′]dipyridin-2(1H)-yl)-2-(naphthalen-2-yloxy)ethan-1-one] | 9 nM
CCc1cc2nc3c(n2cc1C)C(c1ccc(OC)c(OC)c1)N(C(=O)COc1ccc2ccccc2c1CC)CC3 (centres unmarked) [Example 6.1.3, 1-(1-(3,4-dimethoxyphenyl)-7-ethyl-8-methyl-3,4-dihydroimidazo[1,2-a:5,4-c′]dipyridin-2(1H)-yl)-2-((1-ethylnaphthalen-2-yl)oxy)ethan-1-one] | 9 nM
CCc1cc2nc3c(n2cc1C)C(c1ccc(OC)c(OC)c1)N(C(=O)COc1ccc2ccccc2c1C)CC3 (centres unmarked) [Example 6.1.4, 1-(1-(3,4-dimethoxyphenyl)-7-ethyl-8-methyl-3,4-dihydroimidazo[1,2-a:5,4-c′]dipyridin-2(1H)-yl)-2-((1-methylnaphthalen-2-yl)oxy)ethan-1-one hydrochloride] | 8 nM
COc1ccc(C2c3c(nc4ccc(C)cn34)CCN2C(=O)COc2ccc(Cl)cc2Cl)cc1OC (centres unmarked) [Example 7.1.1, 2-(2,4-dichlorophenoxy)-1-(1-(3,4-dimethoxyphenyl)-8-methyl-3,4-dihydroimidazo[1,2-a:5,4-c′]dipyridin-2(1H)-yl)ethan-1-one] | 89 nM
COc1ccc(C2c3c(nc4ccc(C)cn34)CCN2C(=O)COc2ccc3ccccc3c2)cc1OC (centres unmarked) [Example 7.1.2, 1-(1-(3,4-dimethoxyphenyl)-8-methyl-3,4-dihydroimidazo[1,2-a:5,4-c′]dipyridin-2(1H)-yl)-2-(naphthalen-2-yloxy)ethan-1-one] | 38 nM
COc1ccc(C2c3c(nc4ccc(-c5ccccc5)cn34)CCN2C(=O)COc2ccc3ccccc3c2)cc1OC (centres unmarked) [Example 8.1.1, 1-(1-(3,4-dimethoxyphenyl)-8-phenyl-3,4-dihydroimidazo[1,2-a:5,4-c′]dipyridin-2(1H)-yl)-2-(naphthalen-2-yloxy)ethan-1-one] | 38 nM
COc1ccc(C2c3c(nc4ccc(Cl)cn34)CCN2C(=O)COc2ccc3ccccc3c2)cc1OC (centres unmarked) [Example 9.1.1, 1-(8-chloro-1-(3,4-dimethoxyphenyl)-3,4-dihydroimidazo[1,2-a:5,4-c′]dipyridin-2(1H)-yl)-2-(naphthalen-2-yloxy)ethan-1-one] | 145 nM
COc1ccc(C2c3c(nc4ccc(Br)cn34)CCN2C(=O)COc2ccc3ccccc3c2)cc1OC (centres unmarked) [Example 10.1.1, 1-(8-bromo-1-(3,4-dimethoxyphenyl)-3,4-dihydroimidazo[1,2-a:5,4-c′]dipyridin-2(1H)-yl)-2-(naphthalen-2-yloxy)ethan-1-one] | 124 nM
COc1ccc(C2c3c(nc4ccc(F)cn34)CCN2C(=O)COc2ccc3ccccc3c2)cc1OC (centres unmarked) [Example 11.1.1, 1-(1-(3,4-dimethoxyphenyl)-8-fluoro-3,4-dihydroimidazo[1,2-a:5,4-c′]dipyridin-2(1H)-yl)-2-(naphthalen-2-yloxy)ethan-1-one] | 122 nM
CS(=O)(=O)Nc1ccc(OCC(=O)N2CCc3nc4ccc(F)cn4c3C2c2ccc(Cl)cc2F)c(Cl)n1 (centres unmarked) [Example 11.2.1, N-(6-chloro-5-(2-(1-(4-chloro-2-fluorophenyl)-8-fluoro-3,4-dihydroimidazo[1,2-a:5,4-c′]dipyridin-2(1H)-yl)-2-oxoethoxy)pyridin-2-yl)methanesulfonamide] | 72 nM
CCc1nc(NS(C)(=O)=O)ccc1OCC(=O)N1CCc2nc3ccc(F)cn3c2C1c1ccc(Cl)cc1F (centres unmarked) [Example 11.2.2, N-(5-(2-(1-(4-chloro-2-fluorophenyl)-8-fluoro-3,4-dihydroimidazo[1,2-a:5,4-c′]dipyridin-2(1H)-yl)-2-oxoethoxy)-6-ethylpyridin-2-yl)methanesulfonamide] | 34 nM
CCc1nc(NS(C)(=O)=O)ccc1OCC(=O)N1CCc2nc3ccc(F)cn3c2C1c1sc(C)nc1C (centres unmarked) [Example 11.3.1, N-(5-(2-(1-(2,4-dimethylthiazol-5-yl)-8-fluoro-3,4-dihydroimidazo[1,2-a:5,4-c′]dipyridin-2(1H)-yl)-2-oxoethoxy)-6-ethylpyridin-2-yl)methanesulfonamide] | 48 nM
COc1ccc(C2c3c(nc4ccc(C(F)(F)F)cn34)CCN2C(=O)COc2ccc3ccccc3c2)cc1OC (centres unmarked) [Example 12.1.1, 1-(1-(3,4-dimethoxyphenyl)-8-(trifluoromethyl)-3,4-dihydroimidazo[1,2-a:5,4-c′]dipyridin-2(1H)-yl)-2-(naphthalen-2-yloxy)ethan-1-one] | 183 nM
COc1ccc(C2c3c(nc4cc(Cl)c(C)cn34)CCN2C(=O)COc2ccc3ccccc3c2)cc1OC (centres unmarked) [Example 13.1.1, 1-(7-chloro-1-(3,4-dimethoxyphenyl)-8-methyl-3,4-dihydroimidazo[1,2-a:5,4-c′]dipyridin-2(1H)-yl)-2-(naphthalen-2-yloxy)ethan-1-one] | 40 nM
CS(=O)(=O)Nc1ccc(OCC(=O)N2CCc3nc4cc(F)ccn4c3C2c2ccc(Cl)cc2F)c(Cl)n1 (centres unmarked) [Example 14.1.1, N-(6-chloro-5-(2-(1-(4-chloro-2-fluorophenyl)-7-fluoro-3,4-dihydroimidazo[1,2-a:5,4-c′]dipyridin-2(1H)-yl)-2-oxoethoxy)pyridin-2-yl)methanesulfonamide] | 74 nM
CS(=O)(=O)Nc1ccc(OCC(=O)N2CCc3nc4c(F)cccn4c3C2c2ccc(Cl)cc2F)c(Cl)n1 (centres unmarked) [Example 15.1.1, N-(6-chloro-5-(2-(1-(4-chloro-2-fluorophenyl)-6-fluoro-3,4-dihydroimidazo[1,2-a:5,4-c′]dipyridin-2(1H)-yl)-2-oxoethoxy)pyridin-2-yl)methanesulfonamide] | 2650 nM
O=C(COc1ccc(N2CCOCC2)cc1Cl)N1CCc2nc3cccnn3c2C1c1ccc(C2CC2)cc1F (centres unmarked) [Example 16.1.1, 2-(2-chloro-4-morpholinophenoxy)-1-(9-(4-cyclopropyl-2-fluorophenyl)-6,9-dihydropyrido[4′,3′:4,5]imidazo[1,2-b]pyridazin-8(7H)-yl)ethan-1-one] | 19 nM
